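In this assay, cells in 96-well plates receive the compound at five concentrations for 48 hours. Endpoints are linearly interpolated between the surrounding concentrations. TGI denotes the concentration required for complete inhibition of growth.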

The first assay relates to NCI/ADR-RES ovarian. Briefly: NCI anticancer screen, dose series, 48 h.
Compound `COC(=O)C1CCC(=O)N1CN(C(C)=O)c1cccc(O)c1` (configuration not stated) gave a TGI above 100 µM.

In the case of `NNc1nnc(CCCCCCCCc2nnc(NN)n2N)n1N`, the TGI was above 100 µM.

On to `CCOC(=O)c1c(NC(=O)c2ccccc2)c(C#N)c2n1CCCCC2`, for which the TGI was above 100 µM.

As for `Oc1c(N2CCCCC2)cc(-c2cc(N3CCCCC3)c(O)c3ccccc23)c2ccccc12`, the TGI was above 100 µM.

In the case of `c1cc(-c2ccc(-c3ccsc3)s2)cs1`, the TGI is 87.5 µM.

On to `Cn1c2ccccc2c(=O)c2c(O)cc3c(c21)C1OCC(C)(O)C1O3` (configuration not stated), for which the TGI was above 100 µM.

The compound `Cn1c(CNc2ccc(-c3n[nH]c(=S)n3C)cc2)n[nH]c1=S` showed a TGI above 100 µM.

`COc1cc(C2c3cc4c(cc3OC(NN)C2C)OCO4)cc(OC)c1O` (configuration not stated) displayed a TGI of 94 µM.

Take `COC(CN(C)C(=S)Nc1cccc2ccccc12)OC`: the TGI is above 10 µM.

`CC1(C)O[C@@H]2[C@@H](COC(C)(C)O[C@H]2C2SCCCS2)O1` displayed a TGI above 100 µM.

As to `N#Cc1sc2nc3ccccc3n2c1N`, the TGI is above 100 µM.

`O=C(O)CCCc1ccc2c(c1)CC1(C2)Cc2cc3c(cc2C1)CCCC3` showed a TGI of 87.4 µM.

`CN(NC1=NCCO1)c1ccc2ccccc2c1` displayed a TGI above 100 µM.

For `CCOC(=O)C1(C/C=C\CBr)CCCC1=O` (configuration not stated), the TGI was 57.2 µM.

The compound `COc1ccc(OC)c2sc(N3C(=O)/C(=C/c4cccc(Oc5ccccc5)c4)N=C3c3ccccc3)nc12` displayed a TGI above 100 µM.

`Cc1cc(O)c(/C=N/C(N)=S)c(=O)o1`: the TGI is above 100 µM.

As for `Cc1[nH]n(-c2nc3c(c(=O)[nH]2)CCCC3)c(=O)c1CCO`, the TGI was above 100 µM.

`Cc1nc2c(sc3nc4c(cc32)CCC4)c(=O)o1` came in with a TGI above 100 µM.

For the compound `Cc1cc2nc3c(C#N)c(-c4ccccc4)/c(=C\Nc4ccc(F)cc4)c(=O)n3c2cc1C`, the TGI is above 100 µM.

In turn, `O=S(=O)(/N=C(\NO)Nc1ccc(Cl)cc1)c1cc(C(F)(F)F)cc(C(F)(F)F)c1` came in with a TGI of 58.1 µM.

The test system of another assay is PC-3 prostate. Briefly: NCI anticancer screen, dose series, 48 h.
As for `CC(C)C(Cl)CCC(C)(Cl)C(=O)CBr` (configuration not stated), the TGI was determined as 23.2 µM.

Compound `Clc1ccc(C=Nc2ccc(Oc3ccc(Cl)cc3)c(Cl)c2)cc1` returned a TGI of 69.8 µM.

The compound `Cc1cccc2sc(NC(=O)NS(=O)(=O)n3cnc4ccccc43)nc12` gave a TGI of 95.3 µM.

In the case of `COC(=O)C1CCC(=O)N1CN(C(C)=O)c1cccc(O)c1` (configuration not stated), the TGI was above 100 µM.

The compound `NNc1nnc(CCCCCCCCc2nnc(NN)n2N)n1N` yielded a TGI above 100 µM.

`CCOC(=O)c1c(NC(=O)c2ccccc2)c(C#N)c2n1CCCCC2` displayed a TGI above 100 µM.

As for `Oc1c(N2CCCCC2)cc(-c2cc(N3CCCCC3)c(O)c3ccccc23)c2ccccc12`, the TGI is above 100 µM.

Compound `Cn1c2ccccc2c(=O)c2c(O)cc3c(c21)C1OCC(C)(O)C1O3` (configuration not stated) gave a TGI above 100 µM.

`Cn1c(CNc2ccc(-c3n[nH]c(=S)n3C)cc2)n[nH]c1=S` came in with a TGI above 100 µM.

In turn, `COc1cc(C2c3cc4c(cc3OC(NN)C2C)OCO4)cc(OC)c1O` (configuration not stated) registered a TGI above 100 µM.

On to `COC(CN(C)C(=S)Nc1cccc2ccccc12)OC`, for which the TGI is above 10 µM.

In the case of `CC1(C)O[C@@H]2[C@@H](COC(C)(C)O[C@H]2C2SCCCS2)O1`, the TGI was above 100 µM.

`N#Cc1sc2nc3ccccc3n2c1N` gave a TGI above 100 µM.

The compound `O=C(O)CCCc1ccc2c(c1)CC1(C2)Cc2cc3c(cc2C1)CCCC3` yielded a TGI of 66.8 µM.

In the case of `CN(NC1=NCCO1)c1ccc2ccccc2c1`, the TGI was above 100 µM.

Compound `CCOC(=O)C1(C/C=C\CBr)CCCC1=O` (configuration not stated) yielded a TGI above 100 µM.

As for `COc1ccc(OC)c2sc(N3C(=O)/C(=C/c4cccc(Oc5ccccc5)c4)N=C3c3ccccc3)nc12`, the TGI was above 100 µM.

Take `Cc1cc(O)c(/C=N/C(N)=S)c(=O)o1`: the TGI is above 100 µM.

In the case of `Cc1[nH]n(-c2nc3c(c(=O)[nH]2)CCCC3)c(=O)c1CCO`, the TGI is above 100 µM.

Turning to `Cc1nc2c(sc3nc4c(cc32)CCC4)c(=O)o1`, the TGI was above 100 µM.

`Cc1cc2nc3c(C#N)c(-c4ccccc4)/c(=C\Nc4ccc(F)cc4)c(=O)n3c2cc1C` gave a TGI above 100 µM.

`O=S(=O)(/N=C(\NO)Nc1ccc(Cl)cc1)c1cc(C(F)(F)F)cc(C(F)(F)F)c1` gave a TGI of 31.5 µM.

For the next assay, the system named is SF-295 CNS. Briefly: NCI anticancer screen, dose series, 48 h.
Consider `CC(C)C(Cl)CCC(C)(Cl)C(=O)CBr` (configuration not stated), for which the TGI turned out to be 41.2 µM.

With `Clc1ccc(C=Nc2ccc(Oc3ccc(Cl)cc3)c(Cl)c2)cc1`, the TGI came to 37.7 µM.

As to `C1CSCCSCCCS[C@@H]2CCCCC2SC1` (some centres not stated), the TGI was above 100 µM.

`Cc1cccc2sc(NC(=O)NS(=O)(=O)n3cnc4ccccc43)nc12` came in with a TGI of 50.1 µM.

Consider `COC(=O)C1CCC(=O)N1CN(C(C)=O)c1cccc(O)c1` (configuration not stated), for which the TGI is above 100 µM.

`NNc1nnc(CCCCCCCCc2nnc(NN)n2N)n1N` came in with a TGI above 100 µM.

Turning to `CCOC(=O)c1c(NC(=O)c2ccccc2)c(C#N)c2n1CCCCC2`, the TGI is above 100 µM.

Consider `Oc1c(N2CCCCC2)cc(-c2cc(N3CCCCC3)c(O)c3ccccc23)c2ccccc12`, for which the TGI is above 100 µM.

Regarding `c1cc(-c2ccc(-c3ccsc3)s2)cs1`, the TGI was above 100 µM.

As to `O=C1c2ccccc2N2OC3(N4CCOCC4)CCCC3C12c1ccccc1` (configuration not stated), the TGI was above 100 µM.

`Cn1c(CNc2ccc(-c3n[nH]c(=S)n3C)cc2)n[nH]c1=S` gave a TGI above 100 µM.

Take `COc1cc(C2c3cc4c(cc3OC(NN)C2C)OCO4)cc(OC)c1O` (configuration not stated): the TGI came out at 14.7 µM.

As to `COC(=O)[C@@]12OC[C@]34C([C@@H](O)C1O)[C@@]1(C)CC(=O)C(OC(=O)CC(C)C(F)(F)F)=C(C)C1C[C@H]3OC(=O)[C@H](O)[C@H]42` (some centres not stated), the TGI stood at 42.5 µM.

For `COC(CN(C)C(=S)Nc1cccc2ccccc12)OC`, the TGI is above 10 µM.

In turn, `CC1(C)O[C@@H]2[C@@H](COC(C)(C)O[C@H]2C2SCCCS2)O1` displayed a TGI above 100 µM.

The compound `N#Cc1sc2nc3ccccc3n2c1N` had a TGI above 100 µM.

`O=C(O)CCCc1ccc2c(c1)CC1(C2)Cc2cc3c(cc2C1)CCCC3`: the TGI worked out at 56.9 µM.

In turn, `CN(NC1=NCCO1)c1ccc2ccccc2c1` yielded a TGI above 100 µM.

In turn, `CCOC(=O)C1(C/C=C\CBr)CCCC1=O` (configuration not stated) yielded a TGI above 100 µM.

In turn, `COc1ccc(OC)c2sc(N3C(=O)/C(=C/c4cccc(Oc5ccccc5)c4)N=C3c3ccccc3)nc12` showed a TGI above 100 µM.

Compound `Cc1cc(O)c(/C=N/C(N)=S)c(=O)o1` had a TGI above 100 µM.

`Cc1[nH]n(-c2nc3c(c(=O)[nH]2)CCCC3)c(=O)c1CCO` showed a TGI above 100 µM.

Compound `Cc1nc2c(sc3nc4c(cc32)CCC4)c(=O)o1` yielded a TGI above 100 µM.

The compound `Cc1cc2nc3c(C#N)c(-c4ccccc4)/c(=C\Nc4ccc(F)cc4)c(=O)n3c2cc1C` returned a TGI above 100 µM.

On to `O=C(c1ccccc1)C1(Br)S(=O)(=O)OCCOS1(=O)=O`, for which the TGI is above 100 µM.

(Values after PubChem BioAssay (NCI).)
